Measurements as given in ChEMBL document CHEMBL3885861, “Open TG-GATES”.

Species on record: Rattus norvegicus
Assay: Open TG-GATES - Regimen: Daily Repeat
Type: toxicity, organism-based, Sprague-Dawley
Set-up: regimen Daily Repeat, gender Male, age 6 weeks
Conditions: in vivo, po, 30 mg/kg, route gavage, dose level Low; for APTT / Bas / Eos / Fbg / Hb / Ht / Lym / MCH / MCHC / MCV / Mono / Neu / PT / Plat / RBC / Ret / WBC: tissue Blood; for ALP / ALT / AST / BUN / CRE / DBIL / GLC / IP / K / Na / PL / RALB / TBIL / TC / TG / TP / gamma-GTP: tissue Plasma

## NS(=O)(=O)c1cc(C(=O)O)c(NCc2ccco2)cc1Cl [FUROSEMIDE]
72 h, time 3 day
  TERMINAL_BW: 242 g
  APTT: 16.1 s
  Bas: 0.2%
  Eos: 1%
  Fbg: 282.4 mg/dL
  Hb: 13.4 g/dL
  Ht: 39.8%
  Lym: 79.2%
  MCH: 21.7 pg
  MCHC: 33.6%
  MCV: 64.6 fL
  Mono: 2.4%
  Neu: 16.8%
  PT: 15.2 s
  Plat: 115.5 x10_4/uL
  RBC: 617 x10_4/ul
  Ret: 5.5%
  WBC: 93.7 x10_2/uL
  ALP: 1458.2 IU/L
  ALT: 37.6 IU/L
  AST: 66.6 IU/L
  BUN: 16.2 mg/dL
  CRE: 0.2 mg/dL
  DBIL: 0.012 mg/dL
  GLC: 173.8 mg/dL
  IP: 7.3 mg/dL
  K: 3.8 meq/L
  Na: 142.6 meq/L
  PL: 157 mg/dL
  RALB: 2.6 g/dL
  TBIL: 0.048 mg/dL
  TC: 79.2 mg/dL
  TG: 94.6 mg/dL
  TP: 5.7 g/dL
  gamma-GTP: 0.6 IU/L
[…], time 7 day
  TERMINAL_BW: 283.7 g
  APTT: 17.3 s
  Bas: 0.2%
  Eos: 1%
  Fbg: 291 mg/dL
  Hb: 13.4 g/dL
  Ht: 39.7%
  Lym: 78.2%
  MCH: 21.2 pg
  MCHC: 33.7%
  MCV: 62.8 fL
  Mono: 3%
  Neu: 16.4%
  PT: 15.5 s
  Plat: 114.5 x10_4/uL
  RBC: 631.8 x10_4/ul
  Ret: 5.9%
  WBC: 125.8 x10_2/uL
  ALP: 1491.8 IU/L
  ALT: 41.2 IU/L
  AST: 67.4 IU/L
  BUN: 16.2 mg/dL
  CRE: 0.2 mg/dL
  DBIL: 0.018 mg/dL
  GLC: 188.2 mg/dL
  IP: 7.5 mg/dL
  K: 4 meq/L
  Na: 142.6 meq/L
  PL: 170.2 mg/dL
  RALB: 2.6 g/dL
  TBIL: 0.05 mg/dL
  TC: 83.6 mg/dL
  TG: 130.2 mg/dL
  TP: 5.7 g/dL
  gamma-GTP: 0.8 IU/L
[…], time 14 day
  TERMINAL_BW: 321.7 g
  APTT: 19.2 s
  Bas: 0.4%
  Eos: 0.8%
  Fbg: 296.8 mg/dL
  Hb: 14.4 g/dL
  Ht: 42.1%
  Lym: 81.4%
  MCH: 20.8 pg
  MCHC: 34.3%
  MCV: 60.7 fL
  Mono: 2.2%
  Neu: 14.2%
  PT: 15.8 s
  Plat: 109.5 x10_4/uL
  RBC: 693.6 x10_4/ul
  Ret: 3.9%
  WBC: 112.4 x10_2/uL
  ALP: 1426.6 IU/L
  ALT: 40.8 IU/L
  AST: 70 IU/L
  BUN: 16.6 mg/dL
  CRE: 0.2 mg/dL
  DBIL: 0.016 mg/dL
  GLC: 188.6 mg/dL
  IP: 6.7 mg/dL
  K: 3.9 meq/L
  Na: 143.6 meq/L
  PL: 152 mg/dL
  RALB: 2.6 g/dL
  TBIL: 0.046 mg/dL
  TC: 72.2 mg/dL
  TG: 126.6 mg/dL
  TP: 5.9 g/dL
  gamma-GTP: 0.4 IU/L
[…], time 28 day
  TERMINAL_BW: 410.5 g
  APTT: 17.7 s
  Bas: 0.6%
  Eos: 1%
  Fbg: 270.4 mg/dL
  Hb: 14.8 g/dL
  Ht: 43.9%
  Lym: 81.2%
  MCH: 19.8 pg
  MCHC: 33.8%
  MCV: 58.5 fL
  Mono: 1.8%
  Neu: 15%
  PT: 15.8 s
  Plat: 95.5 x10_4/uL
  RBC: 750.2 x10_4/ul
  Ret: 2.5%
  WBC: 110.9 x10_2/uL
  ALP: 1044.8 IU/L
  ALT: 36 IU/L
  AST: 58.6 IU/L
  BUN: 15.8 mg/dL
  CRE: 0.2 mg/dL
  DBIL: 0.016 mg/dL
  GLC: 179.4 mg/dL
  IP: 5.8 mg/dL
  K: 3.9 meq/L
  Na: 144 meq/L
  PL: 164.4 mg/dL
  RALB: 2.7 g/dL
  TBIL: 0.044 mg/dL
  TC: 78.4 mg/dL
  TG: 155.8 mg/dL
  TP: 6.3 g/dL
  gamma-GTP: 1 IU/L
